Results on three compounds are retold here after patent publication US5306482A, “Radiopharmaceutical bacteriostats” (priority 1992, dated 1994).

Data set [1] is described as follows: Accelerated stability study of MDP/PABA/BAC. Format: physicochemical. Here is the method:
The formulations were examined in an accelerated stability study which was conducted according to FDA guidelines.

Data set [2] concerns bacterial, fungal and mold growth. As to the kind of experiment: Microbiological test according to USP XXI (Example 15) - overall. Format: cell-based. Here is the method: (§1) A microbiological test was conducted according to USP XXI.
Radiopharmaceutical kits employing MDP (methylene diphosphonic acid), IDP(iminodiphosphonic acid) or DTPA(diethylene-triamine-pentacetic acid) and benzylalkonium chloride (BAC), and optionally polymyxin sulfate B (PSB) were prepared, reconstituted and inoculated utilizing standard procedures.

For the next data set, the system named is dust culture. Nature of the data set: Bacteriostatic effect of BAC in MDP/PABA - sterility test. In kind it is cell-based, wild strains of bacteria and fungi. The method, then:
(§2) A test of the bacteriostatic effects of various concentrations of benzalkonium chloride in MDP/PABA was conducted. A total of fourteen vials, two each of the six concentrations of benzalkonium chloride in MDP/PABA and two control MDP/PABA vials were utilized. A dilute source of microorganisms was prepared by adding 3 drops of a "dust culture" (which was a mixed culture derived from dust and comprised a variety of wild strains of bacteria and fungi typical to ambient conditions) to 1 liter of sterile water for injection. After sufficient agitation, three drops of the dilute culture were added to one vial of each concentration, including one zero vial, and all fourteen vials were left to incubate overnight (approx. 18 hours) at room temperature. One tube (15 mi) of Fluid Thioglycollate medium and one tube (15 mi) of Tryptic Soy medium was inoculated with 1 milliliter from each of the fourteen incubated vials. Each tube was incubated for fourteen days.

Data set [3] has as its system bacterial, fungal and mold growth. Nature of the data set: Microbiological test according to USP XXI - overall. In kind it is cell-based. The note with it: 10 or 25 μg BAC in a volume of 10 ml. Here is the method: as §1
Data set [4] in a line: MDP/PABA/BAC formulation - radiochemical stress test. Format: physicochemical. The method, then:
Four batches of MDP/PABA/BAC kits were prepared, lyophilized, and tested. The formulations were as follows: […]
One vial from each batch was reconstituted with 500 mCi ^99m Tc-sodium pertechnetate in 10 mL. Twenty minutes later, 7 mL were removed. The vials were left at room temperature for the duration of the test.

The nature of data set [5]: IDP/PABA/BAC and IDP/PABA/BAC/PSB stress test (radiochromatography). In kind it is physicochemical. The note with it: 500 mCi pertechnetate 99mTc. Here is the method:
(§3) Three vials with a total volume of 10 ml from a recently manufactured methylene diphosphonic acid (MDP) kit containing PABA were treated with various amounts of benzalkonium chloride, i.e., 1, 5 and 10 mg which corresponded to 0.01, 0.05 and 0.10% solutions. Radiochromatography was performed using ITLC-SG strips developed in acetone and saline. The vials were tested at 5 and 24 hours post reconstitution. At these two periods, less than 1% free pertechnetate and reduced hydrolyzed technetium was found in the three vials.
Two vials of IDP/PABA/BAC were reconstituted with 500 mCi of pertechnetate ^99m Tc in 10 mL of normal saline and 7 ml of the solution was removed 20 minutes later, The solutions were kept at room temperature for the length of the test. The radiochromatography tests as described in Example 1 were performed at less than 30 minutes and at 7 and 24 hours post reconstitution (PR):
Two vials of IDP/PABA/BAC/PSB were reconstituted with 500 mCi of pertechnetate ^99m Tc in 10 mL of normal saline and 7 ml of the solution was removed 20 minutes later. The solutions were kept at room temperature for the length of the test. The radiochromatography tests as described in Example 1 were performed at less than 30 min and at 7 and 24 hours post reconstitution (PR): […]

Data set [6] is described as follows: MDP/PABA/BAC radiochemical stress test (Example 3). Format: physicochemical. The note with it: before filtration; pH 7.0; 50 μg BAC.
Procedure: A radiochemical "stress test" was also performed on three vials of MDP/PABA/BAC. A "non-stressed" vial was tested simultaneously as a control.
Four vials of the lyophilized product were labelled with ^99m Tc-sodium pertechnetate. Each received 500 mCi in 10 mL of technetium from a recent elution. For the first three vials, twenty minutes after reconstitution, 7 mL were removed. The fourth vial remained untouched. The vials were kept at room temperature throughout the length of the experiment.
The radiochemical tests were performed at 0.5, 6.0 and 24 hours post reconstitution.
Data set [7] is described as follows: Radiolabelling test of benzalkonium chloride (BAC) with sodium pertechnetate 99mTc in the presence of PABA (ITLC-SG radiochromatography, physical appearance). Format: physicochemical. The note with it: for effect on PABA / its anti-oxidant properties / physical appearance (precipitate): MDP/PABA kit. The method, then:
A preliminary radiolabelling test of benzalkonium chloride (BAC) with sodium pertechnetate ^99m Tc in the presence of para-aminobenzoic acid (PABA) was conducted.
as §3

A short description of data set [8]: MDP/PABA formulated with benzalkonium chloride - stress test (radiochromatography). The note with it: 10 mg BAC added with 500 mCi pertechnetate 99mTc. Format: physicochemical.
Procedure: Four vials of MDP/PABA were reconstituted with 500 mCi of pertechnetate ^99m Tc in 9 mL of normal saline. Immediately to two vials were added 1 mg/1 mL (0.01%) of benzalkonium chloride solution. Similarly, to the remaining two vials we added 10 mg/1 mL (0.1%).
Data set [9] is described as follows: MDP/PABA compared with MDP/PABA/BAC - biodistribution. In kind it is in vivo. The note with it: rat. The method, then:
A lyophilized batch of MDP/PABA formulated with benzalkonium chloride (MDP/PABA/BAC) was prepared and tested. The bacterial preservative was added prior to freeze-drying. No special precaution was taken in order to avoid excessive air oxidation of the tin.
A side by side study of biodistribution of the two formulations with and without benzalkonium chloride was conducted.
Each lyophilized vial contained 10 mg of MDP, 1 mg of stannous chloride dehydrate, 2 mg of PABA and 50 μg of benzalkonium chloride (BAC). The pH was adjusted to 7.0. […] The haze was filtered off to give a clear solution.
The dosage was 83 μg MDP per rat (130-150 g). Tissue distribution was monitored at 20 minutes, 1 hour, 2 hours, 6 hours and 24 hours post-reconstitution (PR).

Data set [10] concerns concentrated dust culture. Nature of the data set: Bacteriostatic effect of BAC in MDP/PABA - viability check. In kind it is cell-based, wild strains of bacteria and fungi. Here is the method: as §2
The mark [11] stands for this setting: MDP/PABA kit vials with 1, 5 and 10 mg BAC (0.01, 0.05, 0.10%), 5 and 24 hours post reconstitution.

For the compound “N-alkylbenzyldimethylammonium chloride and/or N-dialkylbenzylmethylammonium chloride [benzalkonium chloride]”, the “effect on shelf life of unreconstituted products” value in data set [1] is “does not diminish the shelf life of unreconstituted products”. The bacteriostasis entry in data set [2] (25 μg BAC and optionally 25 μg polymyxin B in 10 ml) was “effective bacteriostasis”; in [3], “effective bacteriostasis”. Further, the “Sterility test (growth)” value is given as “NEG” with dust culture (10 μg BAC per vial, control (not inoculated), SOY); “NEG” with dust culture (10 μg BAC per vial, control (not inoculated), THIO.); “POS” in the data set on dust culture (10 μg BAC per vial, inoculated, SOY); “POS” with dust culture (10 μg BAC per vial, inoculated, THIO.); “NEG” in the data set with dust culture (25 μg BAC per vial, control (not inoculated), SOY); “NEG” in the data set with dust culture (25 μg BAC per vial, control (not inoculated), THIO.). Besides, the “Sterility test (growth)” value in the data set with dust culture (25 μg BAC per vial, inoculated, SOY) is “POS”; in the data set on dust culture (25 μg BAC per vial, inoculated, THIO.) it was “POS”; with dust culture (50 μg BAC per vial, control (not inoculated), SOY), “NEG”; with dust culture (50 μg BAC per vial, control (not inoculated), THIO.), “NEG”; in the data set on dust culture (50 μg BAC per vial, inoculated, SOY) it was “NEG”; in the data set with dust culture (50 μg BAC per vial, inoculated, THIO.), “NEG”. For the same compound, the “Sterility test (growth)” value was “NEG” with dust culture (100 μg BAC per vial, control (not inoculated), SOY); “NEG” with dust culture (100 μg BAC per vial, control (not inoculated), THIO.); “NEG” in the data set on dust culture (100 μg BAC per vial, inoculated, SOY); “NEG” in the data set on dust culture (100 μg BAC per vial, inoculated, THIO.); “NEG” in the data set with dust culture (250 μg BAC per vial, control (not inoculated), SOY); “NEG” in the data set on dust culture (250 μg BAC per vial, control (not inoculated), THIO.). The “Sterility test (growth)” value with dust culture (250 μg BAC per vial, inoculated, SOY) is “NEG”; in the data set on dust culture (250 μg BAC per vial, inoculated, THIO.), “NEG”; with dust culture (1000 μg BAC per vial, control (not inoculated), SOY) it was “NEG”; in the data set on dust culture (1000 μg BAC per vial, control (not inoculated), THIO.), “NEG”; with dust culture (1000 μg BAC per vial, inoculated, SOY) it was “NEG”; with dust culture (1000 μg BAC per vial, inoculated, THIO.), “NEG”. The “growth in both media” value in the data set on dust culture (10 μg and 25 μg BAC per vial) was “Growth was observed in both media”. In addition, in the data set with dust culture (greater than 25 μg BAC per vial), the growth result was “no growth”. For the same compound, the “effect on reducing capacity of stannous chloride” value in [4] is on record as “neither improved nor diminished the reducing capacity of stannous chloride”. In addition, the “effect on stability of the product” value in data set [5] and in data set [8] was “did not affect the stability of the product” in each case. Also, the “haze on addition to the final solution” value in data set [6] is reported as “a slight haze appeared”. Also, the “effect on PABA / its anti-oxidant properties” value is given as “did not have a deteriorating effect on PABA” in data set [7] and “does not interfere with the anti-oxidant properties of PABA” in [7] (listed as BAC). In data set [7], the “physical appearance (precipitate)” value is given as “no precipitate was observed”. In [7] (setting [11]), the free pertechnetate result is listed as “less than 1%”. The reduced hydrolyzed technetium result in data set [7] (setting [11]) was “less than 1%”. For the same compound, the “biodistribution of the radiopharmaceutical upon addition of BAC” value in [9] is reported as “not altered”. The “Viability check: date growth observed” value is reported as 2/2 in [10] (50 μg BAC, control, SOY); 2/1 in data set [10] (50 μg BAC, control, THIO.); 2/2 in data set [10] (50 μg BAC, innoc., SOY); 2/1 in data set [10] (50 μg BAC, innoc., THIO.); 2/2 in data set [10] (100 μg BAC, control, SOY); 2/1 in data set [10] (100 μg BAC, control, THIO.). Moreover, the “Viability check: date growth observed” value in data set [10] (100 μg BAC, innoc., SOY) is 2/6; in data set [10] (100 μg BAC, innoc., THIO.) it was 2/1; in data set [10] (250 μg BAC, control, SOY) it was “NEG”; in [10] (250 μg BAC, control, THIO.), “NEG”; in data set [10] (250 μg BAC, innoc., SOY), “NEG”; in [10] (250 μg BAC, innoc., THIO.), “NEG”. The “Viability check: date growth observed” value in data set [10] (1000 μg BAC, control, SOY) is recorded as “NEG”; in data set [10] (1000 μg BAC, control, THIO.) it was “NEG”; in [10] (1000 μg BAC, innoc., SOY) it was “NEG”; in data set [10] (1000 μg BAC, innoc., THIO.), “NEG”. The “effect in viability test” value in [10] (250 μg BAC per vial and over) is “beneficial effect of the benzalkonium chloride was evident”.
For `CC(C)(C)CC(C)(C)c1ccc(OCCOCC[N+](C)(C)Cc2ccccc2)cc1` [benzethonium chloride], in data set [7], the “effect on PABA / its anti-oxidant properties” value is “did not interfere with the anti-oxidant properties of PABA” and the “physical appearance (precipitate)” value is reported as “caused the phosphonate to precipitate giving a cloudy solution”.
Regarding polymyxin B, in data set [2] (addition to BAC), the “protection against Gram Negative bacteria” value was “additional protection against Gram Negative bacteria”.
